In the assay the test system is P. falciparum 3D7 growth, pLDH absorbance. Briefly: P. falciparum 3D7 growth inhibition, dose response, strain 3D7 (AID 2305).

Each structure is given as a SMILES string.

The compound `c1ccc2[nH]c(-c3ccc(-c4ccc(CNCCc5ccncc5)cc4)s3)nc2c1` came in with an IC50 of 160 nM.
`Nc1nc(N)c2c(n1)CCC(c1ccccc1)C2` (configuration not stated) yielded an IC50 of 1010 nM.
The value for `COc1ccc(Nc2nc(NN=Cc3ccc(-c4ccc([N+](=O)[O-])cc4)o3)nc(Nc3ccccc3)n2)cc1` was 760 nM; that for `CCCN1CC[C@@H](CCCc2ccnc3ccc(O)cc23)[C@@H](CC)C1` was 890 nM; that for `COc1ccc(Nc2nccc(N3CCC(NC(=O)c4cccc(C#N)c4)C3)n2)cc1` (configuration not stated) was 820 nM.
In the case of `Cc1nc2c(c(O)c1Cl)-c1ccc(Oc3cccc(C(F)(F)F)c3)cc1C2=O` it was 40 nM; in that of `CC1CCCCC1N(C)C1CCN(CCCNC(=O)C=Cc2cccc(C(F)(F)F)c2)CC1` (configuration not stated), 770 nM; in that of `NCCCNc1nccc(N2CCc3ncnc(Nc4ccc(OCc5cccc(F)c5)c(Cl)c4)c3C2)n1`, 830 nM.
For the compound `CCC[C@@H]([C@@H](CC1CCCCC1)C(=O)N[C@H](C(=O)Nc1nccs1)[C@H](C)O)N(O)C=O`, the IC50 came to 150 nM.
The value for `COc1ccc(-c2nc(NC(=O)CS(=O)(=O)c3ccccc3)sc2C)cc1` was 600 nM; that for `O=c1cc(NCCCNCc2cc(Br)cs2)[nH]c2ccccc12` was 1060 nM; that for `FC(F)(F)c1ccc(-c2cncc(-c3ccc(C(F)(F)F)cc3)n2)cc1` was 760 nM.
The value for `OC1(c2ccc(Cl)c(C(F)(F)F)c2)CCN(CCOC2c3ccccc3CSc3ccc(Cl)cc32)CC1` (configuration not stated) was 800 nM; that for `Cc1nc(-c2cccc3c(NC(=O)Nc4ccc5nccc(N6CCN(C)CC6)c5c4)cccc23)no1` was 230 nM; that for `O=C(Cc1cccs1)NCC(c1ccccc1Cl)c1c[nH]c2ccccc12` (configuration not stated) was 1150 nM.
The compound `O=[N+]([O-])c1nc(Br)n(Cc2ccc(Cl)cc2)n1` returned a half-maximal inhibitory concentration (IC50) of 360 nM.
For the compound `O=C1NC(=O)C(c2cccc(NC(=O)c3ccncc3)c2)=C1c1ccccc1`, the IC50 was found to be 740 nM.
The value for `CC(=O)c1c(CC(=O)O)c2ccccc2n1O` was 740 nM.
In the case of `CN1CCN(c2cc(NC(=O)Nc3ccc(-c4ccncc4)c(Cl)c3)ccc2Br)CC1` it was 900 nM.
The value for `CC(C)Cn1cc2c(ccc3nc(N)nc(N)c32)n1` was 300 nM.
Take `Cc1c[nH]c2ccc(/C=C/C(=O)NC3CCC(CCN4CCc5ccc(C#N)cc5CC4)CC3)cc12` (configuration not stated): the IC50 was 830 nM.
In the case of `Nc1ccn([C@@H]2O[C@H](COC(c3ccccc3)(c3ccccc3)c3ccccc3)[C@@H](O)[C@@H]2O)c(=O)n1` it was 830 nM; in that of `CCn1c(-c2nonc2N)nc2c(-c3cccc(NC(=O)Nc4ccccc4OC)c3)ncc(OCCCN)c21`, 1000 nM.
For `Cc1ccc(O)c(-c2cc(C(=O)Nc3ccc(S(=O)(=O)N4CCCC(C)C4)cc3)[nH]n2)c1` (configuration not stated), the half-maximal inhibitory concentration (IC50) was found to be 710 nM.
The value for `O=C(Nc1ccc(Cl)cc1)Nc1cccc(-c2ccc(-c3nc4ccc(F)cc4[nH]3)cc2)c1` was 50 nM.
In turn, `COc1ccc(CC(C)NCC(O)c2cccc(C(F)(F)F)c2)cc1F` (configuration not stated) showed an IC50 of 830 nM.
In the case of `COc1ccc2nc3cc(Cl)ccc3c(NCCCN3CCNCC3)c2c1` it was 230 nM; in that of `O=S(=O)(Nc1cccc(CCN2CCC(N3CCCCC3)CC2)c1)c1cccc2cccnc12`, 850 nM; in that of `COC(=O)c1cccc(CNCc2cccc(-c3cccc(-c4nc5ccc(F)cc5[nH]4)c3)c2)c1`, 130 nM.
In the case of `Cc1cccc2[nH]c(-c3ccc(-c4cccc(NC(=O)c5cccc(C(N)=O)c5)c4)cc3)nc12` it was 1130 nM; in that of `c1ccc(C(OCCC2CCN(Cc3cccc4cccnc34)CC2)c2ccccc2)cc1`, 870 nM; in that of `CCOc1ccc(-c2noc(-c3c[nH]c4ccccc4c3=O)n2)cc1`, 210 nM.
As for `O=C(O)c1cc(C(F)(F)F)co1`, the concentration for half-maximal inhibition (IC50) was 830 nM.
The value for `OCCN1CCN(Cc2ccc(-c3ccc(-c4nc5ccccc5[nH]4)cc3)cc2)CC1` was 620 nM; that for `CCNc1cc(C(=O)N[C@@H](Cc2ccccc2)[C@H](O)CNCc2cc(OC)cc(OC)c2)cc(N2CCCS2(=O)=O)c1` was 40 nM.
The value for `CCC(CO)NCC(O)Cn1c2ccc(Cl)cc2c2cc(Cl)ccc21` (configuration not stated) was 770 nM; that for `CC(=O)Nc1ncc(C(=O)Nc2cccc(-c3cccc(-c4nc5ccc(F)cc5[nH]4)c3)c2)s1` was 450 nM.
In the case of `CCc1c[nH]c2c(N3CCCC3=O)cc(C(=O)N[C@@H](Cc3ccccc3)[C@H](O)CNC3CCCCC3)cc12` it was 100 nM; in that of `O=C(Nc1ccc(Cl)cc1)Nc1ccc(-c2cccc(-c3nc4ccccc4[nH]3)c2)cc1`, 160 nM.
In turn, `O=C(NC1CC1)c1ccc(N2CCC(Cc3ccccc3)CC2)c([N+](=O)[O-])c1` returned a concentration for half-maximal inhibition (IC50) of 610 nM.
The compound `CCNCc1cccc(-c2ccc3ccnc(N)c3c2)c1` registered an IC50 of 50 nM.
The value for `Cc1sc(C)c(CNCCCNc2cc(=O)c3ccccc3[nH]2)c1Br` was 880 nM; that for `CCN1CCc2c1cc(C(=O)N[C@@H](Cc1ccccc1)[C@H](O)CNC(C)(C)c1cccc(C(F)(F)F)c1)cc2N1CCCCS1(=O)=O` was 110 nM; that for `CC(=O)C=C1CC(=O)N(C[C@@H](O)[C@H]2O[C@@H]3OC(C)(C)O[C@@H]3[C@H]2O)c2ccccc2N1` was 1260 nM.
The value for `O=C(NC1CCCCC1)N(Cc1ccc(-c2ccc(CNCc3ccc4c(c3)OCO4)cc2)cc1)C1CCN(Cc2ccccc2)CC1` was 690 nM; that for `COc1cc(NC(=O)CCCCCCCN2CCN(C)CC2)c2ncccc2c1` was 610 nM; that for `Cc1cc(-c2ccc(CNC3CCN(C)CC3)cc2)ccc1S(=O)(=O)NCc1ccccc1` was 850 nM.
The value for `O=C(/C=C/c1ccc(Cl)c(Cl)c1)NCCCCCN1CC[C@H](c2c[nH]c3ccccc23)[C@@H](O)C1` was 800 nM; that for `CCCNCc1ccc(-c2ccc(CN(CCOC)C(=O)CCc3ccc(OC)cc3)cc2)nc1` was 980 nM; that for `Cc1nnsc1C(=O)Nc1ccc(-c2ccc(-c3nc4c(C)cccc4[nH]3)s2)cc1` was 590 nM.
`O=C(NCC1CCC(C(=O)O)CC1)c1ccc(/C=C/C(=O)N2CCc3ccccc3C2c2ccc3c(c2)OCO3)cc1` (configuration not stated) displayed an IC50 of 890 nM.
`COc1ccc(Cn2c(=O)[nH]c3cc(C(=O)NC4CCN(Cc5ccccc5)CC4)ccc3c2=O)cc1` had an IC50 of 750 nM.
The value for `COc1cccc(OCC2CCCN(CCCCNC(=O)c3ccc(NC(=O)c4ccc(Cl)cc4)cc3)C2)c1` (configuration not stated) was 750 nM.
For `CC(=O)Nc1cccc(Nc2nccc(-c3c(-c4cccc(NC(=O)c5c(F)cccc5F)c4)nn4ncccc34)n2)c1`, the IC50 came out at 180 nM.
The value for `CCCCC(=O)Nc1nonc1-c1ccc(OCC)c(OCC)c1` was 910 nM; that for `CCCN(CCCN(CCCN(CCC)C(C)C)c1cc(C)nc(Nc2ccc(Cl)cc2)n1)C(C)C` was 110 nM; that for `CC(C)CCCC(C)(C)NC[C@@H](O)[C@H](Cc1ccccc1)NC(=O)c1cc(NC(C)C)cc(N2CCCCS2(=O)=O)c1F` was 220 nM.
`Cc1[nH]c(C)c(-c2ccc(Oc3ccc(C(F)(F)F)cc3)cc2)c(=O)c1Br` showed a half-inhibitory concentration (IC50) of 210 nM.
Turning to `CC(C)c1ccc(NS(=O)(=O)c2cccc(C(=O)NC3CCN(CC4CCCCC4)CC3)c2)cc1`, the 50% inhibitory concentration (IC50) was found to be 1300 nM.
`COc1ccc2nccc(NC(=O)OC3CCC(NCc4ccc5c(n4)NC(=O)CS5)CC3)c2c1` (configuration not stated) came in with a 50% inhibitory concentration (IC50) of 920 nM.
The compound `CC(CN(C)C)C(=O)Nc1cccc(-c2ccc(-c3nc4ccccc4[nH]3)s2)c1` (configuration not stated) gave a 50% inhibitory concentration (IC50) of 740 nM.
In the case of `FC(F)(F)c1ccc2nc(-c3cccc(-c4cccc(CNCC5CCCO5)c4)c3)[nH]c2c1` (configuration not stated) it was 420 nM; in that of `CS(=O)(=O)c1ccc2nc(NC(=O)c3csnn3)sc2c1`, 670 nM.
In the case of `COc1cccc(-c2ccc3c(-c4cccc(S(C)(=O)=O)c4)cnc(N)c3c2)c1` it was 870 nM; in that of `O=C(Nc1cc(F)cc(F)c1)NC1CCN(CCCCCNC(=O)[C@@H]2C[C@H]2c2ccc(Cl)c(Cl)c2)CC1`, 750 nM; in that of `COc1nc(N)ncc1C(=O)NC1CN2CCC1CC2` (configuration not stated), 240 nM.
The value for `O=C(Nc1ccccc1)N(Cc1ccccc1-c1cccc(CNC2CCCC2)c1)C1CCN(Cc2ccccc2)CC1` was 170 nM.
The compound `FC(F)(F)c1cccc(CNCCCCCNCc2ccc(Cl)cc2)c1` gave an IC50 of 1030 nM.
The value for `Cc1[nH]cnc1CSCCNC(=NCCCCCCCCN=C(NC#N)NCCSCc1nc[nH]c1C)NC#N` was 1270 nM; that for `c1cc(-c2ccc(CNCCc3ccncc3)cc2)cc(-c2nc3ccccc3[nH]2)c1` was 140 nM; that for `CCOc1ccc(Nc2ccc3nonc3c2S(=O)(=O)Nc2ccc(OCC)cc2)cc1` was 510 nM.
In the case of `O=C(/C=C/c1ccc(Cl)c(Cl)c1)NCCCCCN1CCC(CCNC(=O)/C=C/c2ccccc2F)CC1` it was 870 nM; in that of `CC(=O)Nc1cccc(/C=C/C(=O)N2CCC(N3CCCCC3)CC2)c1`, 1050 nM; in that of `Cc1cc(OCCCN2CCC(NS(=O)(=O)c3ccc(C(F)(F)F)cc3)CC2)c2ccccc2n1`, 1220 nM.
The value for `C=CCc1cc(Br)ccc1OCCCOc1c(N)nc(N)nc1N` was 190 nM; that for `COc1ccc(NC(=O)[C@H](Cc2ccccc2)Nc2cc(C)nc(NCCc3cccnc3)n2)cc1` was 760 nM.
In the case of `COc1ccc(C(=O)N2CCc3cc4nccc(N5CCN6CCC[C@H]6C5)c4cc32)cc1`, the IC50 worked out at 950 nM.
In the case of `Fc1cccc(Nc2nc(NCc3ccc(OCc4ccccc4)cc3)nc(Nc3cccc(F)c3)n2)c1` it was 1180 nM; in that of `Cc1ccccc1C1CCN(c2ccc(C(=O)Nc3ccc(F)cc3)cn2)CC1`, 190 nM; in that of `CN(C)c1ccc(CN2CCC(NC(=O)c3ccc(-c4cccc(C(F)(F)F)c4)s3)CC2)cc1`, 1150 nM.
In the case of `CCCCCCN1CCC(NCc2cccc3ccccc23)CC1` it was 810 nM; in that of `CCOc1ccc(-c2cc3nc(C4CCNCC4)c(C(=O)Nc4ccc(C)cc4Cl)cn3n2)cc1`, 920 nM; in that of `CN(C)CCCNc1ncnc2c1[nH]c1ccc(Cl)cc12`, 280 nM.
In the case of `CS(=O)(=O)NCCCNCc1ccc(-c2ccc(-c3nc4ccc(C(F)(F)F)cc4[nH]3)s2)cc1` it was 510 nM.
`CCCCCCCNCCNc1cc(C)nc2ccccc12` returned an IC50 of 390 nM.
The value for `CCOC(=O)c1ccc(NC(=O)N[C@@H](Cc2ccccc2)C(=O)NC2CCN(Cc3ccc(OCCCN(C)C)cc3)C2)cc1` (some centres not stated) was 700 nM.
In turn, `COc1ccc2nc3cc(Cl)ccc3c(NCCNCC(O)CO)c2n1` (configuration not stated) came in with a 50% inhibitory concentration (IC50) of 150 nM.

Source of the values: PubChem BioAssay AID2305 (GlaxoSmithKline (GSK), 2010).
